Test results as given in patent US12187709B2 (Genentech, Inc., priority 2021, dated 2025).

Tests used:
c-Cbl = c-Cbl (Homo sapiens (Human), UniProt P22681); assay: C-Cbl LCK Ub TR-FRET assay (C-cbl Lck HTRF); assay type: biochemical
In short: (§1)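 Signal is read once the detection mix has stood 20 min at ambient temperature. Curves are anchored by DMSO as maximum and by omission of LCK as minimum.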

Cbl-b = Cbl-b (Homo sapiens (Human), UniProt Q13191); assay: Cbl-b LCK Ub TR-FRET assay (Cbl-b Lck HTRF); assay type: biochemical; settings: for IC50: Cbl-b LCK Ub TR-FRET; for fold-selectivity (Cbl-b over C-cbl): ratio C-cbl Lck HTRF IC50 / Cbl-b Lck HTRF IC50
In short: as §1

Sequence of c-Cbl (P22681 47-435): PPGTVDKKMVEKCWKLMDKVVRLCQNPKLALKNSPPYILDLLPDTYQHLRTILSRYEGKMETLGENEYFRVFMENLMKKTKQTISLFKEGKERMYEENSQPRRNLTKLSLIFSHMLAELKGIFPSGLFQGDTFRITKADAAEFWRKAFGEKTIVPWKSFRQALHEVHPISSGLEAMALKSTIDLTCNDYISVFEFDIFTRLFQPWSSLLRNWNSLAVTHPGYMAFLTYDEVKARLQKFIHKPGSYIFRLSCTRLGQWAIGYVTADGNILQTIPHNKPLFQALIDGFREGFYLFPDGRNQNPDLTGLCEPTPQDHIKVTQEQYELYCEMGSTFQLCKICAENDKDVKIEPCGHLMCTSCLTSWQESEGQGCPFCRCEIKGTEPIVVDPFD
Sequence of Cbl-b (Q13191 40-426): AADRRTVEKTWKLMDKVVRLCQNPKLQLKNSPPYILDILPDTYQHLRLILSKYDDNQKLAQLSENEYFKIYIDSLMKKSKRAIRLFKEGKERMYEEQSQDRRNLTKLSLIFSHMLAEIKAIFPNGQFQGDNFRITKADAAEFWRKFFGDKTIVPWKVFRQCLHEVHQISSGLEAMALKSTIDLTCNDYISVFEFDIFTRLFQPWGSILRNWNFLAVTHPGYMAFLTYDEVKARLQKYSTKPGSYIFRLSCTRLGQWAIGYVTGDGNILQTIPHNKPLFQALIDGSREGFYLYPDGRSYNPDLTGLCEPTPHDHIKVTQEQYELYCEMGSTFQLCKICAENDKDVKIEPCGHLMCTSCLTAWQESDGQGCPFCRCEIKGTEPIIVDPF

Question: For Cc1cc(C2(c3nncn3C)CC(F)(F)C2)cc(N2Cc3c(cc(CNC4(C)CCC4)cc3C(F)(F)F)C2=O)n1 [Compound 60, 2-(4-(3,3-difluoro-1-(4-methyl-4H-1,2,4-triazol-3-yl)cyclobutyl)-6-methylpyridin-2-yl)-6-(((1-methylcyclobutyl)amino)methyl)-4-(trifluoromethyl)isoindolin-1-one], which IC50 (c-Cbl) is on record?
Answer: 0.08 µM

Question: And the IC50 (Cbl-b)?
Answer: 0.11 µM

Question: What about the “fold-selectivity (Cbl-b over C-cbl)” value (Cbl-b) of the same compound?
Answer: (0.73x)

Question: With CCOc1cc([C@]2(c3nncn3C)C[C@@H](OC)C2)cc(N2Cc3c(cc(CNC4(C)CCC4)cc3C(F)(F)F)C2=O)n1 [Compound 76, 2-(6-ethoxy-4-((1S,3S)-3-methoxy-1-(4-methyl-4H-1,2,4-triazol-3-yl)cyclobutyl)pyridin-2-yl)-6-(((1-methylcyclobutyl)amino)methyl)-4-(trifluoromethyl)isoindolin-1-one] as the compound, how does the IC50 (c-Cbl) read?
Answer: 0.0064 µM

Question: And the IC50 (Cbl-b)?
Answer: 0.0064 µM

Question: What about the “fold-selectivity (Cbl-b over C-cbl)” value (Cbl-b) of the same compound?
Answer: (1.0x)

Question: Which IC50 (c-Cbl) does the source give for CCOc1cc([C@]2(c3nncn3C)C[C@H](OC)C2)cc(N2Cc3c(cc(CNC4(C)CCC4)cc3C(F)(F)F)C2=O)n1 [Compound 77, 2-(6-ethoxy-4-((1R,3R)-3-methoxy-1-(4-methyl-4H-1,2,4-triazol-3-yl)cyclobutyl)pyridin-2-yl)-6-(((1-methylcyclobutyl)amino)methyl)-4-(trifluoromethyl)isoindolin-1-one] here?
Answer: 0.0082 µM

Question: And the IC50 (Cbl-b)?
Answer: 0.0082 µM

Question: What about the “fold-selectivity (Cbl-b over C-cbl)” value (Cbl-b) of the same compound?
Answer: (1.0x)

Question: What does the source list for CO[C@H]1C[C@@](c2cc(OC3CCCC3)nc(N3Cc4c(cc(CNC5(C)CCC5)cc4C(F)(F)F)C3=O)c2)(c2nncn2C)C1 [Compound 78, 2-(6-(cyclopentyloxy)-4-((1S,3S)-3-methoxy-1-(4-methyl-4H-1,2,4-triazol-3-yl)cyclobutyl)pyriidn-2-yl)-6-(((1-methylcyclobutyl)amino)methyl)-4-(trifluoromethyl)isoindolin-1-one]?
Answer: IC50 (c-Cbl): 0.07 µM; IC50 (Cbl-b): 0.014 µM; fold-selectivity (Cbl-b over C-cbl) (Cbl-b): (5.0x)

Question: How did the IC50 (c-Cbl) turn out when CO[C@H]1C[C@](c2cc(OC3CCCC3)nc(N3Cc4c(cc(CNC5(C)CCC5)cc4C(F)(F)F)C3=O)c2)(c2nncn2C)C1 [Compound 79, 2-(6-(cyclopentyloxy)-4-((1R,3R)-3-methoxy-1-(4-methyl-4H-1,2,4-triazol-3-yl)cyclobutyl)pyridin-2-yl)-6-(((1-methylcyclobutyl)amino)methyl)-4-(trifluoromethyl)isoindolin-1-one] was run?
Answer: 0.237 µM

Question: What about the IC50 (Cbl-b) of the same compound?
Answer: 0.032 µM

Question: What about the “fold-selectivity (Cbl-b over C-cbl)” value (Cbl-b) of the same compound?
Answer: (7.4x)

Question: How did the IC50 (c-Cbl) turn out when Cn1cnnc1C1(c2cccc(N3Cc4c(cc(CNC5(C)CCC5)cc4C(F)(F)F)C3=O)c2)CC2(CC(=O)C2)C1 [Compound 92, 2-(3-(2-(4-methyl-4H-1,2,4-triazol-3-yl)-6-oxospiro[3.3]heptan-2-yl)phenyl)-6-(((1-methylcyclobutyl)amino)methyl)-4-(trifluoromethyl)isoindolin-1-one] was run?
Answer: 0.029 µM

Question: What about the IC50 (Cbl-b) of the same compound?
Answer: 0.013 µM

Question: What about the “fold-selectivity (Cbl-b over C-cbl)” value (Cbl-b) of the same compound?
Answer: 2.2x

Question: What does the source list for Cn1cnnc1C1(c2cccc(N3Cc4c(cc(CNC5(C)CCC5)cc4C(F)(F)F)C3=O)c2)CC2(CC(O)C2)C1 (stereo not drawn) [Compound 93, 2-(3-(6-hydroxy-2-(4-methyl-4H-1,2,4-triazol-3-yl)spiro[3.3]heptan-2-yl)phenyl)-6-(((1-methylcyclobutyl)amino)methyl)-4-(trifluoromethyl)isoindolin-1-one]?
Answer: IC50 (c-Cbl): 0.9 µM; IC50 (Cbl-b): 0.12 µM; fold-selectivity (Cbl-b over C-cbl) (Cbl-b): 7.3x

Question: With CC(=O)N1CC2(C1)CC(c1cccc(N3Cc4c(cc(CNC5(C)CCC5)cc4C(F)(F)F)C3=O)c1)(c1nncn1C)C2 [Compound 97, 2-(3-(2-acetyl-6-(4-methyl-4H-1,2,4-triazol-3-yl)-2-azaspiro[3.3]heptan-6-yl)phenyl)-6-(((1-methylcyclobutyl)amino)methyl)-4-(trifluoromethyl)isoindolin-1-one] as the compound, how does the IC50 (c-Cbl) read?
Answer: 16 µM

Question: What about the IC50 (Cbl-b) of the same compound?
Answer: 5.2 µM

Question: And the “fold-selectivity (Cbl-b over C-cbl)” value (Cbl-b)?
Answer: 3.1x

Question: Cn1cnnc1C1(c2cccc(N3Cc4c(cc(CNC5(C)CCC5)cc4C(F)(F)F)C3=O)c2)CC2(CN(S(C)(=O)=O)C2)C1 [Compound 98, 2-(3-(6-(4-methyl-4H-1,2,4-triazol-3-yl)-2-(methylsulfonyl)-2-azaspiro[3.3]heptan-6-yl)phenyl)-6-(((1-methylcyclobutyl)amino)methyl)-4-(trifluoromethyl)isoindolin-1-one] was tested. Which IC50 (c-Cbl) did it give?
Answer: 7.5 µM

Question: And the IC50 (Cbl-b)?
Answer: 1.3 µM

Question: And the “fold-selectivity (Cbl-b over C-cbl)” value (Cbl-b)?
Answer: 5.8x

Question: How did the IC50 (c-Cbl) turn out when Cn1cnnc1[C@]1(c2cccc(N3Cc4c(cc(CNC5(C)CCC5)cc4C(F)(F)F)C3=O)c2)C[C@](F)(CF)C1 [Compound 105, 2-(3-((1r,3r)-3-fluoro-3-(fluoromethyl)-1-(4-methyl-4H-1,2,4-triazol-3-yl)cyclobutyl)phenyl)-6-(((1-methylcyclobutyl)amino)methyl)-4-(trifluoromethyl)isoindolin-1-one] was run?
Answer: 0.054 µM

Question: What about the IC50 (Cbl-b) of the same compound?
Answer: 0.015 µM

Question: And the “fold-selectivity (Cbl-b over C-cbl)” value (Cbl-b)?
Answer: 3.7x

Question: What does the source list for Cn1cnnc1[C@H](c1cccc(N2Cc3c(cc(CNC4(C)CCC4)cc3C(F)(F)F)C2=O)c1)C1CC2(COC2)C1 [Compound 121, (S)-2-(3-((4-methyl-4H-1,2,4-triazol-3-yl)(2-oxaspiro[3.3]heptan-6-yl)methyl)phenyl)-6-(((1-methylcyclobutyl)amino)methyl)-4-(trifluoromethyl)isoindolin-1-one]?
Answer: IC50 (c-Cbl): 20 µM; IC50 (Cbl-b): 11 µM; fold-selectivity (Cbl-b over C-cbl) (Cbl-b): 1.7x

Question: For Cn1cnnc1[C@@H](c1cccc(N2Cc3c(cc(CNC4(C)CCC4)cc3C(F)(F)F)C2=O)c1)C1CC2(COC2)C1 [Compound 122, (R)-2-(3-((4-methyl-4H-1,2,4-triazol-3-yl)(2-oxaspiro[3.3]heptan-6-yl)methyl)phenyl)-6-(((1-methylcyclobutyl)amino)methyl)-4-(trifluoromethyl)isoindolin-1-one], which IC50 (c-Cbl) is on record?
Answer: 2.1 µM

Question: And the IC50 (Cbl-b)?
Answer: 1.4 µM

Question: What about the “fold-selectivity (Cbl-b over C-cbl)” value (Cbl-b) of the same compound?
Answer: 1.6x

Question: With Cn1cnnc1[C@@H](c1cccc(N2Cc3c(cc(CNC4(C)CCC4)cc3C(F)(F)F)C2=O)c1)[C@@H]1CCOC1 [Compound 168, 2-(3-((R)-(4-methyl-4H-1,2,4-triazol-3-yl)((S)-tetrahydrofuran-3-yl)methyl)phenyl)-6-(((1-methylcyclobutyl)amino)methyl)-4-(trifluoromethyl)isoindolin-1-one] as the compound, how does the IC50 (c-Cbl) read?
Answer: 0.034 µM

Question: What about the IC50 (Cbl-b) of the same compound?
Answer: 0.023 µM

Question: And the “fold-selectivity (Cbl-b over C-cbl)” value (Cbl-b)?
Answer: 1.5x

Question: For Cn1cnnc1C1(c2cccc(N3Cc4c(cccc4C(F)(F)F)C3=O)c2)CC2(COC2)C1 [Compound 191, 2-(3-(6-(4-methyl-4H-1,2,4-triazol-3-yl)-2-oxaspiro[3.3]heptan-6-yl)phenyl)-4-(trifluoromethyl)isoindolin-1-one], which IC50 (c-Cbl) is on record?
Answer: 9.7 µM

Question: What about the IC50 (Cbl-b) of the same compound?
Answer: 5.7 µM

Question: What about the “fold-selectivity (Cbl-b over C-cbl)” value (Cbl-b) of the same compound?
Answer: 1.7x

Question: What does the source list for Cn1cnnc1C1(c2cccc(N3Cc4c(cc(CNC5(C)CCC5)cc4C(F)(F)F)C3=O)c2)CC2(CN(C3COC3)C2)C1 [Compound 199, 2-(3-(6-(4-methyl-4H-1,2,4-triazol-3-yl)-2-(oxetan-3-yl)-2-azaspiro[3.3]heptan-6-yl)phenyl)-6-(((1-methylcyclobutyl)amino)methyl)-4-(trifluoromethyl)isoindolin-1-one]?
Answer: IC50 (c-Cbl): 20 µM; IC50 (Cbl-b): 15 µM; fold-selectivity (Cbl-b over C-cbl) (Cbl-b): 1.4x

Question: How did the IC50 (c-Cbl) turn out when CO[C@H]1C[C@@](c2cc(C)cc(N3Cc4c(cc(CNC5(C)CCC5)cc4C(F)(F)F)C3=O)c2)(c2nncn2C)C1 [Compound 237, 2-(3-((1s,3s)-3-methoxy-1-(4-methyl-4H-1,2,4-triazol-3-yl)cyclobutyl)-5-methylphenyl)-6-(((1-methylcyclobutyl)amino)methyl)-4-(trifluoromethyl)isoindolin-1-one] was run?
Answer: 0.39 µM

Question: What about the IC50 (Cbl-b) of the same compound?
Answer: 0.34 µM

Question: What about the “fold-selectivity (Cbl-b over C-cbl)” value (Cbl-b) of the same compound?
Answer: 1.2x

Question: What does the source list for Cn1cnnc1[C@@H](CC1COC1)c1cccc(N2Cc3c(cc(CNC4(C)CCC4)cc3C(F)(F)F)C2=O)c1 [Compound 244, (S)-2-(3-(1-(4-methyl-4H-1,2,4-triazol-3-yl)-2-(oxetan-3-yl)ethyl)phenyl)-6-(((1-methylcyclobutyl)amino)methyl)-4-(trifluoromethyl)isoindolin-1-one]?
Answer: IC50 (c-Cbl): 3.6 µM; IC50 (Cbl-b): 3.1 µM; fold-selectivity (Cbl-b over C-cbl) (Cbl-b): 1.2x

Question: With Cn1cnnc1[C@H](CC1COC1)c1cccc(N2Cc3c(cc(CNC4(C)CCC4)cc3C(F)(F)F)C2=O)c1 [Compound 245, (R)-2-(3-(1-(4-methyl-4H-1,2,4-triazol-3-yl)-2-(oxetan-3-yl)ethyl)phenyl)-6-(((1-methylcyclobutyl)amino)methyl)-4-(trifluoromethyl)isoindolin-1-one] as the compound, how does the IC50 (c-Cbl) read?
Answer: 0.11 µM

Question: And the IC50 (Cbl-b)?
Answer: 0.049 µM

Question: And the “fold-selectivity (Cbl-b over C-cbl)” value (Cbl-b)?
Answer: 2.2x

Question: For Cn1cnnc1[C@@H](CC1CCCC1)c1cccc(N2Cc3c(cc(CNC4(C)CCC4)cc3C(F)(F)F)C2=O)c1 [Compound 248, (S)-2-(3-(2-cyclopentyl-1-(4-methyl-4H-1,2,4-triazol-3-yl)ethyl)phenyl)-6-(((1-methylcyclobutyl)amino)methyl)-4-(trifluoromethyl)isoindolin-1-one], which IC50 (c-Cbl) is on record?
Answer: 2.1 µM

Question: And the IC50 (Cbl-b)?
Answer: 1.4 µM

Question: And the “fold-selectivity (Cbl-b over C-cbl)” value (Cbl-b)?
Answer: 1.6x

Question: What does the source list for Cn1cnnc1[C@@H](c1cccc(N2Cc3c(cc(CNC4(C)CCC4)cc3C(F)(F)F)C2=O)c1)C1CCCCC1 [Compound 250, (R)-2-(3-(cyclohexyl(4-methyl-4H-1,2,4-triazol-3-yl)methyl)phenyl)-6-(((1-methylcyclobutyl)amino)methyl)-4-(trifluoromethyl)isoindolin-1-one]?
Answer: IC50 (c-Cbl): 3.6 µM; IC50 (Cbl-b): 3.1 µM; fold-selectivity (Cbl-b over C-cbl) (Cbl-b): 1.2x

Question: Which IC50 (c-Cbl) does the source give for Cn1cnnc1[C@@H](CC1CCOCC1)c1cccc(N2Cc3c(cc(CNC4(C)CCC4)cc3C(F)(F)F)C2=O)c1 [Compound 253, (S)-2-(3-(1-(4-methyl-4H-1,2,4-triazol-3-yl)-2-(tetrahydro-2H-pyran-4-yl)ethyl)phenyl)-6-(((1-methylcyclobutyl)amino)methyl)-4-(trifluoromethyl)isoindolin-1-one] here?
Answer: 0.14 µM

Question: What about the IC50 (Cbl-b) of the same compound?
Answer: 0.12 µM

Question: And the “fold-selectivity (Cbl-b over C-cbl)” value (Cbl-b)?
Answer: 1.1x
